The subject of experiment [1] is wild-type Arabidopsis thaliana. Kind of experiment: Growth of wild-type A. thaliana plantlets on medium with D-amino acids. The experiment is classed as in vivo. Here is the method: Wild type Arabidopsis thaliana plantlets were grown on half-concentrated Murashige-Skoog medium (0.5% (wt/vol) sucrose, 0.8% (wt/vol) agar) supplemented with the indicated D-amino acid at either 3 mM (Panel A) or 30 mM (Panel B).
(§1) FIG. 4 D-amino acid dose responses of dao1 transgenic and wild-type A. thaliana. (a-d) Growth of dao1 transgenic line 3:7 (white), 10:7 (light gray), 13:4 (gray) and wild-type (black) plants, in fresh weight per plant, on media containing various concentrations of D-serine, D-alanine, D-isoleucine and D-valine in half-strength MS with 0.5% (wt/vol) sucrose and 0.8% (wt/vol) agar. Different concentration ranges were used for different ID-amino acids. The plants were grown for 10 d after germination under 16 h photoperiods at 24° C.; n=10±s.e.m., except for plants grown on D-isoleucine, where smaller Petri dishes were used, (n=6±s.e.m.).
(§2) T1 seeds of transgenic Arabidopsis plants were surface-sterilized and sown in Petri plates that were sealed with gas-permeable tape. The growth medium was half strength MS19 with 0.5% (wt/vol) sucrose and 0.8% (wt/vol) agar, plus 3 mM D-alanine, 3 mM D-serine or 50 μg/ml kanamycin as the selective agent. Plants were grown for 5 d after germination with a 16 h photoperiod at 24° C. To evaluate the selection efficiency on different substrates, 2,074, 1,914 and 1,810 T1 seeds were sown on D-alanine-, D-serine- and kanamycin-selective plates, respectively, and the number of surviving seedlings was counted (44, 32 and 43, respectively).

Experiment [2] deals with dao1 transgenic A. thaliana. Description: Growth of dao1 (DAAO) transgenic A. thaliana on medium with D-amino acids. In kind it is in vivo, Arabidopsis thaliana. Here is the method:
as §1, §2
The T-DNA contained both 35S:dao1 and pNos:nptII, allowing D-amino acid and kanamycin selection to be compared in the same lot of seeds.
Therefore, plants containing the construct were tested as described above on two sets of media, one containing D-isoleucine and the other containing D-valine at various concentrations, to assess whether DAAO could also be used as a counter-selection marker. Unambiguous counter-selection selection was achieved when seeds were sown on either D-isoleucine or D-valine at concentrations greater than 10 mM (FIG. 4 c,d).

Another experiment has as its target T1, DAAO (Rhodotorula toruloides, UniProt P80324).
T1 construct: expressed in transfected cells; host or cells: Arabidopsis thaliana (Col-0), dao1 transgenic line 10:7, transformed with pPCV702:dao1 (CaMV 35S); crude soluble protein extract
T1 sequence (P80324 25-368): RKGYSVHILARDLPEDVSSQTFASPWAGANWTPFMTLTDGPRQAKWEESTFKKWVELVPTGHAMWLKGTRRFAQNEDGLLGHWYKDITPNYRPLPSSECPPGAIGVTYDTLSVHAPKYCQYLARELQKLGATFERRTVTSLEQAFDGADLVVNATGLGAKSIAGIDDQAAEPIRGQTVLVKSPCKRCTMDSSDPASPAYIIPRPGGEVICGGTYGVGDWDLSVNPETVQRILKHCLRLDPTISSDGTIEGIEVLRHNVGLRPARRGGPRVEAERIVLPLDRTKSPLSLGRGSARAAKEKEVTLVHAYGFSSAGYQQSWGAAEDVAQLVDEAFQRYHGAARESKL
Description: DAAO incubation of cell-free plant extracts, keto acid production by HPLC. In kind it is biochemical, Rhodotorula gracilis. The note with it: cell-free extracts from dao1 transgenic line 10:7. Here is the method:
Soluble proteins were extracted by shaking 0.1 g samples of plant material that had been finely pulverized in a 1.5 ml Eppendorf tube in 1 ml of 0.1 M potassium phosphate buffer, pH 8. DAAO activity was then assayed as follows. Reaction mixtures were prepared containing 2,120 μl of 0.1 M potassium phosphate buffer, pH 8, 80 μl of crude protein extract and 100 μl of 0.3 M D-alanine. The samples were incubated for 2 h at 30° C. The enzyme activity was then assessed, by measuring the increase in absorbance at 220 nm (E=1.090 M^−1 cm^−1) associated with the conversion of D-alanine to pyruvate, after transferring the test tubes to boiling water for […] to stop the reaction. In control reactions, D-alanine was added immediately before boiling. One unit of DAAO activity is defined as the turnover of one micromole of substrate per minute, and activity was expressed per gram plant biomass (fresh weight). The breakdown of D-isoleucine and D-valine in DAAO incubations, and the associated production of 3-methyl-2-oxopentanoate and 3-methyl-2-oxobutanoate, were analyzed by high-performance liquid chromatography. In other respects the reactions were carried out as described above.
Presumably endogenous transaminase may be specific for the L-enantiomer, so the corresponding D-enantiomer is not metabolized in wildtype plants, but only in plants expressing DAAO. […]

Experiment [3] relates to Transgenic Arabidopsis plants (DAAO from Rhodotorula gracilis). Kind of experiment: Greenhouse spraying of mixed plantlets on soil with D-isoleucine. The experiment is classed as in vivo. The settings on record: sprayed, 10 mM, 20 mM, 30 mM in isotonic salt solution, pH 7.0, soil, green-house. Here is the method:
(§3) Transgenic Arabidopsis, Brassica napus, and Zea mays plants are generated as described above using either construct I (SEQ ID NO: 15) or construct II (SEQ ID NO: 16) for Agrobacterium mediated transformation. Transgenic plants are selected using the negative selection marker property of the D-amino acid oxidase on medium comprising 0.3, 3 or 30 mM D-alanine (or D-serine). Resulting transgenic plants are selfed to obtain homozygous plants. Homozygous plants are propagated over 2 to 3 generations to ensure stability of the transgenic insertion.
(§4) Seeds of transgenic plants are mixed with seeds of the corresponding non-transgenic line (used for transformation). Various proportions of transgenic versus non-transgenic seeds are used (1:1, 1:10, 1:100).
(§5) Seeds are sown on standard soil under green-house conditions. After germination, developing plantlets were sprayed at various developmental steps with preparations of D-isoleucine (final concentration of 10 mM, 20 mM, 30 mM, respectively in isotonic salt solution, pH 7.0).

Experiment [4] relates to Transgenic Brassica napus plants (DAAO from Rhodotorula gracilis). The experiment is described as above. The experiment is classed as in vivo. The settings on record: sprayed, 10 mM, 20 mM, 30 mM in isotonic salt solution, pH 7.0, soil, green-house. Here is the method: as §3, §4, §5
The test system of experiment [5] is Transgenic Zea mays plants (DAAO from Rhodotorula gracilis). Described as above. In kind it is in vivo. The note with it: sprayed, 10 mM, 20 mM, 30 mM in isotonic salt solution, pH 7.0, soil, green-house. As for the experimental part: as §3, §4, §5
The subject of experiment [6] is non-transgenic Arabidopsis plants. Described as above. In kind it is in vivo. The settings on record: sprayed, 10 mM, 20 mM, 30 mM in isotonic salt solution, pH 7.0, soil, green-house. Here is the method:
as §3, §4, §5

Experiment [7] deals with non-transgenic Brassica napus plants. The description is as above. The experiment is classed as in vivo. The note with it: sprayed, 10 mM, 20 mM, 30 mM in isotonic salt solution, pH 7.0, soil, green-house. As for the experimental part: as §3, §4, §5
The test system of experiment [8] is non-transgenic Zea mays plants. The experiment is described as above. The note with it: sprayed, 10 mM, 20 mM, 30 mM in isotonic salt solution, pH 7.0, soil, green-house. In kind it is in vivo. Here is the method:
as §3, §4, §5

The mark [9] stands for this setting: various concentrations in half-strength MS, 10 d after germination.

Each structure is given as a SMILES string. “Also recorded” adds a separate entry of the source.

On to `CC[C@@H](C)[C@@H](N)C(=O)O` [D-isoleucine], for which the “Effect on plant growth (FIG. 3)” value in experiment [1] (3 mM or 30 mM in half-concentrated Murashige-Skoog medium, wild type plantlets) was “no significant effects”. For the same compound, in experiment [1] (in vivo), the “Response of wild-type plants (compared with DAAO lines)” value is recorded as “grew well, with no sign of toxicity”. Besides, the “Effect on wild-type plantlets (FIG. 2)” value in [1] (treated with 30 mM) was “no severe damage”. In addition, in [1] (setting [9]), the “Growth of wild-type plants (FIG. 4)” value was “not toxic; also recorded: minor effects; also recorded: not the wild-type plants”. In addition, in experiment [2] (in vivo), the “Response of thirteen individual lines expressing DAAO” value is on record as “effectively killed”. Besides, the “Effect on transgenic plantlets comprising DAAO gene (FIG. 2)” value in [2] (treated with 30 mM) was “toxic effect”. Further, the “Growth of plants expressing DAAO (FIG. 4)” value in [2] (setting [9]) is given as “strong negative influence on the growth; also recorded: inhibit growth”. In addition, the “Increase in production of 3-methyl-2-oxopentanoate compared to extracts of wild-type plants” value at DAAO amounted to 15 fold. In addition, the “Transgenic plants able to reach maturity” value in experiment [3], in [4] and in experiment [5] was “None” each time. Further, the “Effect of the treatment on non-transgenic plants” value in [6], in [7] and in [8] was “unaffected” each time.
